Five compounds from PubChem BioAssay AID220 (DTP/NCI, 2004) can be followed below.

In this assay the test system is CD8F1 mice, subcutaneous mammary adenocarcinoma, T/C%. The experiment in a line: NCI In Vivo Anticancer Drug Screen. Data for tumor model Mammary Adenocarcinoma CD8F1 (subcutaneous) in CD8F1. The note with it: endpoint: median tumor weight (est.), higher = larger tumour. The method in brief: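 Mice carrying transplanted tumors received test compound, and survival or tumor size was recorded. Each value is the treated-group measurement divided by the corresponding measurement in vehicle-dosed controls.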

The mark [1] stands for this setting: dose: 12.5 mg/kg/injection, schedule: Q07DX005 (ip), vehicle: saline with Tween-80.
The mark [2] stands for this setting: dose: 25.0 mg/kg/injection, schedule: Q07DX005 (ip), vehicle: saline with Tween-80.
[3] abbreviates: dose: 50.0 mg/kg/injection, schedule: Q07DX005 (ip), vehicle: saline with Tween-80.
[4] abbreviates: dose: 100.0 mg/kg/injection, schedule: Q07DX005 (ip), vehicle: saline with Tween-80.
Setting [5] is: dose: 200.0 mg/kg/injection, schedule: Q07DX005 (ip), vehicle: saline with Tween-80.
[6] abbreviates: dose: 400.0 mg/kg/injection, schedule: Q07DX005 (ip), vehicle: saline with Tween-80.

Molecules are shown by their SMILES. “And” between values parts separate entries of the source, which are not always exact repeats. Identical values can stand only once. Inconclusive results are not listed.

In the case of `OCCOCCN1CCN(CCCN2c3ccccc3Sc3ccc(C(F)(F)F)cc32)CC1`, the T/C is, setting by setting: (dose: 3.12 mg/kg/injection, schedule: Q07DX005 (ip), vehicle: saline) 53 % of control; (dose: 6.25 mg/kg/injection, schedule: Q07DX005 (ip), vehicle: saline) 97 % of control; (dose: 12.5 mg/kg/injection, schedule: Q07DX005 (ip), vehicle: saline) 95 % of control; (dose: 25.0 mg/kg/injection, schedule: Q07DX005 (ip), vehicle: saline) 71 % of control; (dose: 50.0 mg/kg/injection, schedule: Q07DX005 (ip), vehicle: saline) 97 % of control.

For the compound `N=[N+]=CC(=O)CCC(NC(=O)C(CCC(=O)C=[N+]=N)NC(=O)CCC(N)C(=O)O)C(=O)O` (stereo unspecified), the T/C runs as follows: (dose: 3.12 mg/kg/injection, schedule: Q07DX004 (ip), vehicle: clinical formulation) 34 % of control; (dose: 6.25 mg/kg/injection, schedule: Q07DX004 (ip), vehicle: clinical formulation) 123 % of control; (dose: 12.5 mg/kg/injection, schedule: Q07DX004 (ip), vehicle: clinical formulation) 50 % of control; (dose: 25.0 mg/kg/injection, schedule: Q07DX004 (ip), vehicle: clinical formulation) 22 % of control; (dose: 50.0 mg/kg/injection, schedule: Q07DX004 (ip), vehicle: clinical formulation) 15 % of control; (dose: 100.0 mg/kg/injection, schedule: Q07DX004 (ip), vehicle: clinical formulation) 12 % of control.

Turning to `CC(=O)Nc1ccc(S(=O)(=O)CO)cc1`, the T/C is, setting by setting: under setting [1], 222 % of control and 77 % of control; under setting [2], 174 % of control and 409 % of control; under setting [3], 189 % of control and 268 % of control; under setting [4], 211 % of control and 271 % of control; under setting [5], 186 % of control and 403 % of control; under setting [6], 165 % of control and 281 % of control.

`CC(=O)OCC1(C)NC(=O)c2ccccc2O1` (stereo unspecified): the T/C by setting is: under setting [1], 18 % of control; under setting [2], 40 % of control; under setting [3], 18 % of control; under setting [4], 37 % of control; under setting [5], 34 % of control; under setting [6], 24 % of control.

Consider `CCOC(=O)Nc1cc2c(c(N)n1)N=C(CN(C)c1ccccc1)CN2`, for which the T/C reads like this: (dose: 3.12 mg/kg/injection, schedule: Q07DX005 (ip), vehicle: Klucel (hydroxypropylcellulose) (HPC)) 268 % of control; (dose: 6.25 mg/kg/injection, schedule: Q07DX005 (ip), vehicle: Klucel (hydroxypropylcellulose) (HPC)) 70 % of control; (dose: 25.0 mg/kg/injection, schedule: Q07DX005 (ip), vehicle: Klucel (hydroxypropylcellulose) (HPC)) 69 % of control and 79 % of control.
